Measurements reported in patent US5332733A, “Heterocyclically substituted piperazinoakylbenzoxazine and piperazinoalkylbenzothiazine compounds, processes for preparing them, and medicaments containing them” (Kali-Chemie Pharma GmbH, priority 1990, dated 1994).

Columns and labels:
[1] = system: passive cutaneous anaphylaxis (PCA); assay: Inhibition of passive cutaneous anaphylaxis (PCA) in rats; type: in vivo, Sprague-Dawley rats; details: Rattus norvegicus, 1 h, 2 × 10^-5 mole/kg per os, one hour before ovalbumin challenge
Experimental: (§1) 1. Determining Inhibition of Passive Cutaneous Anaphylaxis (PCA) and Histamine-Induced Anaphylactoid Cutaneous Reaction
The PCA reaction is carried out following the methods described by Goose et al. (J. N. Immunology 16 (1969), 749) and by Martin et al. (Arch. Pharmacol. 316 (1981), 186).
The IgE-rich ovalbumin antiserum used in the test was obtained from immunized Brown-Norway rats. The were immunized with an intraperitoneal injection of a mixture of 100 μg of ovalbumin with a Bordetella pertussis suspension (Vaxicoq™, Manufactured by Institute Merieux, containing 5×10^9 organisms and 1.25 mg Al(OH)3). After 20 days the animals were re-immunized with a further intraperitoneal injection of a solution of 10 μg ovalbumin in 0.5 ml physiological saline solution. After a further four days the blood was removed from the animals and centrifuged. The resulting antiserum was stored at -20° C. until use.
(§2) The inhibition of the passive cutaneous anaphylaxis and of the anaphylactoid cutaneous reaction induced by histamine was determined as follows:
(§3) Sprague-Dawley rats having a body weight of 150-180 g were injected intradermally in one flank with 50 μl of a 1:75 dilution of the IgE-rich ovalbumin antiserum in physiological saline solution to passively sensitize them to ovalbumin.
(§4) 24 hours after sensitization a solution of 8.25 mg/kg of ovalbumin and 26.4 mg/kg of a blue dye (Evans's Blue) was administered to the rats intravenously according to Martin et al. to trigger passive cutaneous anaphylaxis.
(§5) On the day of the experiment the test substances were dissolved in distilled water which contained 1 vol. % dimethylformamide and 1 vol. % of Tween™ 20 (=polyoxyethylene (20) sorbitan monolaurate). One hour before administration of the ovalbumin challenge, each animal was orally administered 2×10^-5 mole/kg of test substance in 0.5 ml of solution. For comparison purposes a control group received only the solvent.
(§6) The edematous anaphylactic (PCA) and anaphylactoid (histamine-induced) reactions caused by the stimulation of the intravenous ovalbumin injection, which manifested themselves by edema formation, swelling and exudation of blue dye, were evaluated 30 minutes after their initiation by the intravenous ovalbumin injection. This was done by visually determining the extent to which the blue dye emerged at the sites of edema formation. The percentage inhibition of anaphylactic and anaphylactoid reactions induced by the test substances in comparison with the reactions of the control animals not treated with any test substance was determined using comparison scales.
(§7) The results obtained using compounds of formula I according to the foregoing test methods are shown in the following Table A. The example numbers given for the compounds of formula I relate to the subsequent preparative examples.

mice = details: mouse, in vivo, 1440 min
Experimental: 2. Determination of Minimum Toxic Dose
Maximum doses of 300 mg/kg of the test substance were administered orally to male mice weighing 20-25 g. The animals were observed carefully for 3 hours for toxicity symptoms. In addition, all symptoms and deaths were recorded over a period of 24 hours after administration. Associated symptoms were also observed and recorded. If death or severe toxic symptoms were observed, additional mice were administered increasingly lower doses. The lowest dose which produced death or severe toxic symptoms is given in the following Table B as the minimum toxic dose.

[2] = system: PAF-induced aggregation of rabbit blood platelets; assay: Anti-PAF activity in vitro, PAF-induced platelet aggregation; type: cell-based, rabbit (New Zealand hybrids); details: Oryctolagus cuniculus, test substance 10^-5 mole/l, pH 7.4
From the text: 4. Determination of Anti-PAF Activity In Vitro
PAF (=Platelet Activating Factor) is a phospholipid mediator which has many effects. Activation of platelet aggregation induces protracted broncho-contraction and hyper-reactivity of the air paths.
In this test the effect of the test substances on platelet aggregation induced by adding PAF to a suspension of platelets obtained from rabbit blood is investigated using the method described by Mikashima et al. (Jap. J. Pharmacol. 44 (1987) 387-391).
A suspension of platelets obtained from rabbit blood containing 4×10^9 platelets/ml in a modified Tyrode buffer solution (=Tyrode solution with 1.3 mM/l CaCl2 and 2.5 g/l gelatine added) adjusted to pH 7.4 was used. Tyrode solution is an aqueous solution containing 136.9 mmoles NaCl, 2.68 mmoles KCl, 2.31 mmoles CaCl2, 1.0 mmole MgCl2, 11.9 mmoles NaHCO3, 1.45 mmoles NaH2 PO4 and 5.55 mmoles glucose per liter. The platelets were obtained from 10 ml blood samples from each of three rabbits (New Zealand hybrids, body weight 3-4 kg). For this the blood samples were treated with ethylenediamine tetraacetic acid and washed according to the method of Artley et al. (Brit. J. Hematol. 19 (1970), 7-17). A platelet-rich plasma was then initially separated by centrifuging (20 minutes at 400×g). The blood platelets were separated from the plasma by recentrifuging for 15 minutes at 1,400×g. The platelets remaining as sediment after centrifuging were resuspended in a Tyrode buffer solution (but without calcium). 0.4 mmole of lysine acetylsalicylate was then added, and after 15 minutes the platelets were sedimented again. The sediment was resuspended in the aforementioned modified Tyrode buffer solution, and the number of platelets in the resulting suspension was adjusted to the desired content.
A 40×10^-9 molar PAF solution was used as a reagent. This solution was made from a 1.8×10^-3 molar stock solution in chloroform. For this purpose a 10 μl sample of the stock solution was evaporated to dryness and redissolved in 180 μl of the modified Tyrode solution to which 0.25% of lipid-free bovine serum albumin had been added. From this 10^-5 molar working solutions were then prepared and stored frozen. Samples of these solutions were appropriately diluted for the tests.
To carry out the test 50 μl of the platelet suspension and 10 μl of a 40×10^-5 molar solution of the compound being investigated were added with stirring (1,000 rpm) to 330 μl of the modified Tyrode buffer solution in an aggregation tube provided with a small magnetic stirrer. This corresponds to a final test substance concentration of 10^-5 mole/l. After 90 seconds preincubation time, 10 μl of the PAF preparation were added. The aggregation occurring in the aggregation tubes was measured over 4-5 minutes with the aid of a computerized aggregometer.
The aggregation which occurred in test tubes containing only platelet suspension was evaluated as 0%, whereas the aggregation which occurred in test tubes containing platelet suspension and PAF preparation was evaluated as 100%. The aggregation which still occurred during the inhibition of the PAF induced platelet aggregation due to the addition of the test substances was measured, and the resulting aggregation inhibition was calculated therefrom in %.

[3] = system: histamine-induced anaphylactoid cutaneous reaction; assay: Inhibition of histamine-induced anaphylactoid cutaneous reaction in rats; type: in vivo, Sprague-Dawley rats; details: Rattus norvegicus, 1 h, 2 × 10^-5 mole/kg per os, one hour before ovalbumin challenge
Experimental: as §1, §2, §3, §4
To determine the histamine-induced anaphylactoid skin reaction, the animals are injected intradermally in the flank opposite to the antiserum administration with 50 μl of a physiological saline solution containing 0.8 mg/ml histamine directly before the intravenous injection of the solution containing the ovalbumin and the blue dye.
as §5, §6, §7

5-lipoxygenase = target: T1, 5-lipoxygenase (Mus musculus, UniProt P48999); assay: In vitro 5-lipoxygenase inhibition, release of LTC4 from zymosan-stimulated peritoneal macrophages; type: cell-based; details: zymosan-stimulated mouse peritoneal macrophage cells, 10^-5 mole/l
T1 construct: A cell suspension containing peritoneal cells from male mice 8-10 weeks old was obtained in a known manner; endogenous in cells; host or cells: mouse peritoneal macrophages (primary, adherent)
T1 sequence (P48999 1-674): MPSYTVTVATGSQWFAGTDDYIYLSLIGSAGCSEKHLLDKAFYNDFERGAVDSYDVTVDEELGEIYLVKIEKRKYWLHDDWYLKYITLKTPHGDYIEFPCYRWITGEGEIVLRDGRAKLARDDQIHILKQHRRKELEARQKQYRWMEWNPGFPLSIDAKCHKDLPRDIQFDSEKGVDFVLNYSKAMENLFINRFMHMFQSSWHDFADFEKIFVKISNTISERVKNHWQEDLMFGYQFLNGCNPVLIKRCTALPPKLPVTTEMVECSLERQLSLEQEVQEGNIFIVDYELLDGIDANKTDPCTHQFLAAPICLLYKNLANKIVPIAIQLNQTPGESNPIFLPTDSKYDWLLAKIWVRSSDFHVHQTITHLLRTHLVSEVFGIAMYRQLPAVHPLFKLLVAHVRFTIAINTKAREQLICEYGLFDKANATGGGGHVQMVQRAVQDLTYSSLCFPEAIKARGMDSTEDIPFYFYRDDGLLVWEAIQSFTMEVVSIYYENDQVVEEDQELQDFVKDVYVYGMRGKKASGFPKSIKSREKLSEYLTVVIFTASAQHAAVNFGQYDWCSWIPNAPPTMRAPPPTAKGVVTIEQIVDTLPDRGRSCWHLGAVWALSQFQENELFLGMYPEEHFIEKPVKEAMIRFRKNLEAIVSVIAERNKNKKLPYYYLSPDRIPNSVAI
From the text: (§8) 5. In Vitro Determination of Cyclooxygenase Inhibition And 5-lipoxygenase Inhibition.
(§9) After a cell is activated, arachidonic acid contained in cell membranes is metabolized in two ways. Leucotrienes, inter alia leucotriene C4, are formed due to the action of the enzyme 5-lipoxygenase (=5-LO), and prostanoids are formed due to the action of the enzyme cyclooxygenase (=CO). In in vitro systems these metabolites are secreted from the cell.
(§10) To evaluate the cyclooxygenase-inhibiting and 5-lipoxygenase-inhibiting properties of the test substances, their inhibitory activity on the biosynthesis of the arachidonic acid derivatives leucotriene C4 (=LTC4) and 6-keto-prostaglandin F1α (=6-keto-PGF1α) was determined in vitro on mouse peritoneal macrophage cells. For this purpose the LTC4 and 6-keto-PGF1α contents of a mouse peritoneal macrophage cell culture medium were determined by zymosan stimulation as described by Scott et al. (J. Exp. Med. 152 (1980), 324-335) and by Fradin et al., (Prostaglandins, 33 (1987), 579-589).
(§11) A cell suspension containing peritoneal cells from male mice 8-10 weeks old was obtained in a known manner. A solution marketed under the designation RPMI 1640 (Manufactured by Gibco) was used as the cell culture medium, to which heparin (10 international units/ml) and antibiotics were added according to the procedure of Bonney et al. (Biochem. J. 176 (1978) 422-433). The cell suspension was adjusted to a cell concentration of 10^6 cells per ml and distributed uniformly on titer dishes containing 24 1-ml titer cells (wells). These were kept for two hours in a humidified incubator filled with air enriched with 7% CO2. Cells not adhering to the titer well walls were then removed by washing. The remaining macrophage cells adhering to the walls were incubated for about 12 hours in a suspension medium to which 0.1% of bovine serum albumin (BSA=Bovine Serum Albumin) was added. The suspension medium was then replaced by a Hanks salt solution (=Hanks Balanced Salt Solution=HBSS) with 10 mmoles of HEPES (=hydroxyethylpiperazinoethanesulfonic acid) to which a 0.1% strength solution of the test substances in aqueous, 1% strength dimethylformamide or only the solvent had been added. After 15 minutes the arachidonic acid metabolism was stimulated by adding […] of zymosan (=glycoprotein mixture isolated from cell walls of beer yeast, Saccharomyces cerevisiae, Manufactured by Sigma Chemical Co., Munich) per titre cell. After 2 hours samples of the respective supernatant liquid in each cell were examined for their 6-keto-PGF1α and LTC4 contents by an enzyme immunoassay (=EIA). This EIA is carried out following the method of Pradelles et al. (Analytical Chem. 57 (1985), 1170-1173). The determination of LTC4 and the determination of 6-keto-PGF1α were each carried out on suitable dilutions of the samples (1:50 to 1:250 for the LTC4 determination and 1:250 to 1:1,250 for the 6-keto-PGF1α determination) in comparison with a comparative scale. To determine the inhibiting effect of a 10^-5 molar concentration of the compounds, the amounts of reference eicosanoid were determined, and the inhibiting effect was calculated therefrom in % inhibition compared to the measurements of the zymosan controls.

cyclooxygenase = target: T2, cyclooxygenase (Mus musculus, UniProt P22437); assay: In vitro cyclooxygenase inhibition, release of 6-keto-PGF1α from zymosan-stimulated peritoneal macrophages; type: cell-based; details: zymosan-stimulated mouse peritoneal macrophage cells, 10^-5 mole/l
T2 construct: A cell suspension containing peritoneal cells from male mice 8-10 weeks old was obtained in a known manner; endogenous in cells; host or cells: mouse peritoneal macrophages (primary, adherent)
T2 sequence (P22437 27-602): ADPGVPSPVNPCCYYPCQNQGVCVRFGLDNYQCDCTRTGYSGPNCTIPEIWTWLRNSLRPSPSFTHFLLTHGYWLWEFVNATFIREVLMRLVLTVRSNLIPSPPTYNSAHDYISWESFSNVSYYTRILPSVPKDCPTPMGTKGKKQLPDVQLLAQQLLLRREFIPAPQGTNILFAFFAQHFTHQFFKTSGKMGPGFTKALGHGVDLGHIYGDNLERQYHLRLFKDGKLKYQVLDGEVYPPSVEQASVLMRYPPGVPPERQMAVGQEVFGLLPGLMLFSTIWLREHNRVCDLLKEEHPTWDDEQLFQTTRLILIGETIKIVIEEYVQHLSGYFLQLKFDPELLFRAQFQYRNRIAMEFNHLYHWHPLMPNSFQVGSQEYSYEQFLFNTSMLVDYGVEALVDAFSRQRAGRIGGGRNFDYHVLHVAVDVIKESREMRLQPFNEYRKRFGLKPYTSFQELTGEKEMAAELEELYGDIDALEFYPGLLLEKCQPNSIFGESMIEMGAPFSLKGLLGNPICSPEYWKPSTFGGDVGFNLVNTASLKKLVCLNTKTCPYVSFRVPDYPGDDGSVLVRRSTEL
From the text: as §8, §9, §10, §11

Row | % inhibition upon release of LTC4 (5-lipoxygenase) [%] | % inhibition upon release of 6-keto-PGF1α (cyclooxygenase) [%] | Structure (SMILES) | inhibition in vivo at 20 µmol/kg [1] [%] | Minimum toxic dose (mice) [mg/kg] | inhibition at 10 µM [2] [%] | inhibition in vivo at 20 µmol/kg [3] [%]
1 |  |  | Cc1ccnc(N2CCN(CCCC3Oc4ccc(C)cc4NC3=O)CC2)c1 (stereo not drawn) [Example 22] | 69 | 300 | 42 | 45
2 | 72 | 36 | Cc1ccnc(N2CCN(C3Sc4ccccc4NC3=O)CC2)c1 (stereo not drawn) [Example 5, 2-[4-(4-methylpyridin-2-yl)-piperazin-1-yl]-2H-1,4-benzothiazine-3(4H)-one] |  |  |  | 
